Article PMC3741170, “Reconstructing the Qo Site of Plasmodium falciparum bc 1 Complex in the Yeast Enzyme” (PLoS ONE, 2013)
“And” between values parts separate entries of the source, which are not always exact repeats. Identical values can stand only once.

Columns and labels:
[1] = tested on: P. falciparum bc 1 complex; conditions: P. falciparum enzyme; not expressed as molar ratio; cited from earlier work
[2] = target: T1, yeast bc 1 complex, cytochrome b mutant L275F (Saccharomyces cerevisiae, UniProt P00163, L275F); assay: Quinol:cytochrome c reductase activity, inhibitor titration, mutant L275F; assay type: biochemical; conditions: for IC50: L275F, ratio of IC50 on concentration of monomeric bc 1 complex
T1 construct: Yeast mitochondria were prepared as in; expressed in transfected cells; host or cells: Saccharomyces cerevisiae, mitochondrial transformation; mitochondria
Procedure: (§1) The mutants were generated by side-directed mutagenesis and mitochondrial transformation as described in [15]. They have identical nuclear and mitochondrial genomes with the exception of the mutations introduced in the cytochrome b gene.
(§2) Yeast mitochondria were prepared as in [16]. Bovine mitochondrial samples were kindly given by Prof. Peter Rich (UCL, UK). Quinol:cytochrome c reductase activity measurements were performed in 10mM potassium phosphate pH 7 and 20µM equine cytochrome c at room temperature. Mitochondria were diluted to 5–30 nM bc 1 complex. Concentrations of monomeric bc 1 complex were determined from the cytochrome b α-band in dithionite-reduced optical spectra, using ε = 28.5 mM^−1.cm^−1 at 562 nm minus 575 nm. Activity was initiated by the addition of 20µM decylubiquinol. Cytochrome c reduction was recorded at 550 nm versus 540 nm over a 3-min time-course in a Beckmann DU 640 spectrophotometer. Initial rates were measured. From these rates, turnover numbers (TN) were calculated as cytochrome c reduced per bc 1 complex per second.
(§3) Cytochrome c reduction activity was measured as described above in presence of increasing concentrations of inhibitors (six to ten different concentrations). Each measurement was repeated at least twice and averaged. […] The mid-point inhibition concentrations (IC50) were determined from the titrations. As the titrations were performed using mitochondrial samples containing different concentrations of bc 1 complex (5–30 nM), the results were presented as ratio of IC50 on the concentration of bc 1 complex.

[3] = tested on: yeast bc 1 complex, Plasmodium-like Qo mutant PF11; assay: Quinol:cytochrome c reductase activity, inhibitor titration, Plasmodium-like mutant PF11; assay type: biochemical, Saccharomyces cerevisiae; conditions: for IC50: PF11, ratio of IC50 on concentration of monomeric bc 1 complex
Procedure: as §1, §2, §3

[4] = target: T2, yeast bc 1 complex, Plasmodium-like Qo mutant PF1 (Saccharomyces cerevisiae, UniProt P00163, C133V/C134L/H141Y/V135P/Y136W); assay: Quinol:cytochrome c reductase activity, inhibitor titration, Plasmodium-like mutant PF1; assay type: biochemical; conditions: ratio of IC50 on concentration of monomeric bc 1 complex
T2 construct: Yeast mitochondria were prepared as in; expressed in transfected cells; host or cells: Saccharomyces cerevisiae, mitochondrial transformation; mitochondria
Procedure: as §1, §2, §3

[5] = tested on: yeast bc 1 complex, Plasmodium-like Qo mutant PF8; assay: Quinol:cytochrome c reductase activity, inhibitor titration, Plasmodium-like mutant PF8; assay type: biochemical, Saccharomyces cerevisiae; conditions: for IC50: ratio of IC50 on concentration of monomeric bc 1 complex
Procedure: as §1, §2, §3

[6] = target: T3, yeast bc 1 complex, cytochrome b mutant Y279S (Saccharomyces cerevisiae, UniProt P00163, Y279S); assay: Quinol:cytochrome c reductase activity, inhibitor titration, mutant Y279S; assay type: biochemical; conditions: ratio of IC50 on concentration of monomeric bc 1 complex
T3 construct: Yeast mitochondria were prepared as in; expressed in transfected cells; host or cells: Saccharomyces cerevisiae, mitochondrial transformation; mitochondria
Procedure: as §1, §2, §3

bovine bc 1 complex [7] = target: T4, bovine bc 1 complex (Bos taurus, UniProt P00157); assay: Quinol:cytochrome c reductase activity, inhibitor titration, bovine mitochondria; assay type: biochemical; conditions: bovine enzyme; ratio of IC50 on concentration of monomeric bc 1 complex
T4 construct: Peter Rich; from tissue
Procedure: as §2, §3

[8] = target: T5, yeast bc 1 complex, Plasmodium-like Qo mutant PF2 (Saccharomyces cerevisiae, UniProt P00163, C133V/C134L/H141Y/L275F/V135P/Y136W); assay: Quinol:cytochrome c reductase activity, inhibitor titration, Plasmodium-like mutant PF2; assay type: biochemical; conditions: ratio of IC50 on concentration of monomeric bc 1 complex
T5 construct: Yeast mitochondria were prepared as in; expressed in transfected cells; host or cells: Saccharomyces cerevisiae, mitochondrial transformation; mitochondria
Procedure: as §1, §2, §3

[9] = tested on: yeast bc 1 complex, Plasmodium-like Qo mutant PF12 (PF11 + Y279S); assay: Quinol:cytochrome c reductase activity, inhibitor titration, Plasmodium-like mutant PF12; assay type: biochemical, Saccharomyces cerevisiae; conditions: ratio of IC50 on concentration of monomeric bc 1 complex
Procedure: as §1, §2, §3

Yeast WT bc 1 complex = target: T6, Yeast WT bc 1 complex (Saccharomyces cerevisiae, UniProt P00163); assay: Quinol:cytochrome c reductase activity, inhibitor titration, yeast WT mitochondria; assay type: biochemical; conditions: ratio of IC50 on concentration of monomeric bc 1 complex
T6 construct: Yeast mitochondria were prepared as in; endogenous in cells; host or cells: Saccharomyces cerevisiae mitochondria
Procedure: as §2, §3

[10] = target: T7, yeast bc 1 complex, human-like Qo mutant HSc (Saccharomyces cerevisiae, UniProt P00163, C133V/C134L/F278A/H141F/L275F/M295L/V135P/Y136W); assay: Quinol:cytochrome c reductase activity, inhibitor titration, human-like mutant HSc; assay type: biochemical; conditions: for IC50: HSc, ratio of IC50 on concentration of monomeric bc 1 complex
T7 construct: Yeast mitochondria were prepared as in; expressed in transfected cells; host or cells: Saccharomyces cerevisiae, mitochondrial transformation; mitochondria
Procedure: as §1, §2, §3

[11] = tested on: Rhodabacter capsulatus bc 1 complex; conditions: bacterial complex, phenylalanine naturally at position 275; cited from earlier work
[12] = target: T8, yeast bc 1 complex, cytochrome b mutant M295L (Saccharomyces cerevisiae, UniProt P00163, M295L); assay: Quinol:cytochrome c reductase activity, inhibitor titration, mutant M295L; assay type: biochemical; conditions: for IC50: M295L, ratio of IC50 on concentration of monomeric bc 1 complex
T8 construct: Yeast mitochondria were prepared as in; expressed in transfected cells; host or cells: Saccharomyces cerevisiae, mitochondrial transformation; mitochondria
Procedure: as §1, §2, §3

[13] = tested on: yeast bc 1 complex, PF11 with deletion Δ158–161; assay: Quinol:cytochrome c reductase activity, PF11 with deletion Δ158–161; assay type: biochemical, Saccharomyces cerevisiae; conditions: deletion introduced in PF11; not shown
Procedure: as §2, §3

[14] = target: T9, yeast bc 1 complex, cytochrome b mutant F278A (Saccharomyces cerevisiae, UniProt P00163, F278A); assay: Quinol:cytochrome c reductase activity, inhibitor titration, mutant F278A; assay type: biochemical; conditions: for IC50 increase (resistance) vs WT: F278A vs yeast WT; for IC50: F278A, ratio of IC50 on concentration of monomeric bc 1 complex
T9 construct: Yeast mitochondria were prepared as in; expressed in transfected cells; host or cells: Saccharomyces cerevisiae, mitochondrial transformation; mitochondria
Procedure: as §1, §2, §3

[15] = target: T1, yeast bc 1 complex, cytochrome b mutant L275F; conditions: vs yeast WT; cited from earlier work
[16] = target: yeast bc 1 complex, human-like Qo mutant HSa; assay: Quinol:cytochrome c reductase activity, inhibitor titration, human-like mutant HSa; assay type: biochemical, Saccharomyces cerevisiae; conditions: ratio of IC50 on concentration of monomeric bc 1 complex
Procedure: as §1, §2
Cytochrome c reduction activity was measured as described above in presence of increasing concentrations of inhibitors (six to ten different concentrations). Each measurement was repeated at least twice and averaged. […] The mid-point inhibition concentrations (IC50) were determined from the titrations. […]

[17] = tested on: Rhodabacter capsulatus bc 1 complex, mutations I281M and R283K (yeast numbering); design: method as in PMID 15917236; conditions: bacterial complex with I281M and R283K; cited from earlier work
[18] = target: T10, yeast bc 1 complex, human-like Qo mutant HSb (Saccharomyces cerevisiae, UniProt P00163, F278A/L275F/M295L); assay: Quinol:cytochrome c reductase activity, inhibitor titration, human-like mutant HSb; assay type: biochemical; conditions: for IC50: HSb, ratio of IC50 on concentration of monomeric bc 1 complex
T10 construct: Yeast mitochondria were prepared as in; expressed in transfected cells; host or cells: Saccharomyces cerevisiae, mitochondrial transformation; mitochondria
Procedure: as §1, §2, §3

P. falciparum = conditions: read-out: IC50, P. falciparum proliferation; cited from earlier work
bovine bc 1 complex [19] = assay: Quinol:cytochrome c reductase activity, inhibitor titration, bovine mitochondria; assay type: biochemical; conditions: bovine vs yeast WT
Procedure: as §2, §3

Row | Compound | IC50 [1] | IC50 [2] [molar ratio] | IC50 [3] [molar ratio] | IC50 [4] [molar ratio] | IC50 [5] [molar ratio] | IC50 [6] [molar ratio] | IC50 (bovine bc 1 complex [7]) [molar ratio] | IC50 [8] [molar ratio] | IC50 [9] [molar ratio] | IC50 (Yeast WT bc 1 complex) [molar ratio] | IC50 [10] [molar ratio] | IC50 [12] [molar ratio] | IC50 increase (resistance) vs WT [14] [fold] | IC50 [14] [molar ratio] | IC50 [16] [molar ratio] | IC50 [18] [molar ratio] | further results
1 | CCOC(=O)c1c[nH]c2cc(Oc3ccc(OC(F)(F)F)cc3)ccc2c1=O [RCQ06] | ~1.3 nM and 1.3 nM | 10 | 25 | >500 | 40 | >500 | 40 | 10 | >500 | >500 | – | – | – | – | – | – | increase in sensitivity vs WT ([2]; L275F vs yeast WT): over 50 fold
2 | O=C1C(O)=C([C@H]2CC[C@H](c3ccc(Cl)cc3)CC2)C(=O)c2ccccc21 [atovaquone] | ~3 nM and 3 nM | 150 | 3 | 2 | 16 | >850 | 75 | 10 | >850 | 4 | 60 | 10 | 9 | 35 | 200 | 170 | resistance vs WT enzyme ([10]; HSc vs yeast WT): 15 fold; IC50 increase (resistance) vs WT ([2]; L275F vs yeast WT): 35 fold; IC50 [11]: ~30 nM; IC50 increase (resistance) vs WT ([12]; M295L vs yeast WT): 2.5 fold; effect of deletion Δ158–161 on sensitivity [13]: little effect; decrease in sensitivity on introducing L275F in yeast bc 1 complex [15]: over 20 fold; IC50 [17]: 10 nM
3 | CO/C=C(/C(=O)OC)c1ccccc1Oc1cc(Oc2ccccc2C#N)ncn1 [azoxystrobin] | – | 30 | 40 | 5 | 220 | 60 | 180 | 16 | 30 | 20 | 140 | 45 | 6 | 120 | 130 | 160 | IC50 (P. falciparum): 15 nM; lowering of resistance by changes in position 133 to 141 ([3]; PF11 vs PF8): 5 fold; resistance conferred by triple mutation ([18]; HSb vs yeast WT): 8 fold; increase in resistance caused by modifications of residues 283 to 299 [5]: 10 fold; resistance of the mammalian enzyme compared to yeast enzyme (bovine bc 1 complex [19]): 9 fold
4 | antimycin | – | – | – | – | – | – | – | – | – | – | – | – | – | – | – | – | sensitivity compared with that of the WT control ([10]; HSc vs WT, data not shown): No or very little difference; sensitivity compared with that of the WT control ([3]; PF11 vs WT, data not shown): No or very little difference
